From paper PMC7001580 (Nature chemical biology, 2016)

Legend:
YMR027W [1] = target: T1, YMR027W (Saccharomyces cerevisiae, UniProt Q04371, N255A); assay: phosphatase activity compared with wild type; assay type: biochemical; details: alanine mutant of signature residue
T1 sequence (Q04371 1-470 N255A): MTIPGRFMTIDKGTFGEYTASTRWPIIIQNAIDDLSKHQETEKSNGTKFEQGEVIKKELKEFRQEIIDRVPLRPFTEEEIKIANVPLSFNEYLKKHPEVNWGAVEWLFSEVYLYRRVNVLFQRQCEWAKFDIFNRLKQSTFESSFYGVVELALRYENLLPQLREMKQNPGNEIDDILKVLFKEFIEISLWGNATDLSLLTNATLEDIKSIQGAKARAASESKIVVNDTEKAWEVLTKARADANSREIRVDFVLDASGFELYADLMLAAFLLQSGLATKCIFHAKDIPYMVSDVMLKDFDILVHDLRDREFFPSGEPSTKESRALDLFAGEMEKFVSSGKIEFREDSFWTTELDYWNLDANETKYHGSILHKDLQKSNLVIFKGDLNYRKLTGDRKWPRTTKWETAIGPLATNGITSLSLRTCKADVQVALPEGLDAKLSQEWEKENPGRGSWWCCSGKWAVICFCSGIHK

YMR027W [2] = target: T2, YMR027W (Saccharomyces cerevisiae, UniProt Q04371, D254A); assay: phosphatase activity compared with wild type; assay type: biochemical; details: alanine mutant of signature residue
T2 sequence (Q04371 1-470 D254A): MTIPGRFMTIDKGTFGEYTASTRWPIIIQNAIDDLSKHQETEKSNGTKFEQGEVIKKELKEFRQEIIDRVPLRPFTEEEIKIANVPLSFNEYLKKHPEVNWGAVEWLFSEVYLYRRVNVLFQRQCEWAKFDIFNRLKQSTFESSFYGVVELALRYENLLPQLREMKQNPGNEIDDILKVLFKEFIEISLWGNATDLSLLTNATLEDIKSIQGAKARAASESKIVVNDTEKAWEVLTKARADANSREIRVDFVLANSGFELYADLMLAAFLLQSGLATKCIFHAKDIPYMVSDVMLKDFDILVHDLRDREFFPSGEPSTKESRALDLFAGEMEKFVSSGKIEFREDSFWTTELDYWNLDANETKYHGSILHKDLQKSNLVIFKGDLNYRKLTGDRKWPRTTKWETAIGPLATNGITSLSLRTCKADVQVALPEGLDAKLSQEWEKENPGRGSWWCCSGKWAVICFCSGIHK

At2g17340 [3] = target: T3, At2g17340 (Arabidopsis thaliana, UniProt Q949P3, D220A); assay: phosphatase activity compared with wild type; assay type: biochemical; details: alanine mutant of signature residue
T3 sequence (Q949P3 1-367 D220A limits assumed): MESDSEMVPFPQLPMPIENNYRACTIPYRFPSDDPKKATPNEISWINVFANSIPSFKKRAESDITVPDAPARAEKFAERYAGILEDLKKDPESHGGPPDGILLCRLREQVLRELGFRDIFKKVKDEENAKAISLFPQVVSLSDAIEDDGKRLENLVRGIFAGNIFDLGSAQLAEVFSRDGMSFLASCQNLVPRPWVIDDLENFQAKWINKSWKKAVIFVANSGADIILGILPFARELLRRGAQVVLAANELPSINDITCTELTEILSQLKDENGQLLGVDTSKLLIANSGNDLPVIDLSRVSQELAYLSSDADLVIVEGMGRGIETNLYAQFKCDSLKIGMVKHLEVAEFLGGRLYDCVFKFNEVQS

At2g17340 [4] = target: T4, At2g17340 (Arabidopsis thaliana, UniProt Q949P3, N221A); assay: phosphatase activity compared with wild type; assay type: biochemical; details: alanine mutant of signature residue
T4 sequence (Q949P3 1-367 N221A limits assumed): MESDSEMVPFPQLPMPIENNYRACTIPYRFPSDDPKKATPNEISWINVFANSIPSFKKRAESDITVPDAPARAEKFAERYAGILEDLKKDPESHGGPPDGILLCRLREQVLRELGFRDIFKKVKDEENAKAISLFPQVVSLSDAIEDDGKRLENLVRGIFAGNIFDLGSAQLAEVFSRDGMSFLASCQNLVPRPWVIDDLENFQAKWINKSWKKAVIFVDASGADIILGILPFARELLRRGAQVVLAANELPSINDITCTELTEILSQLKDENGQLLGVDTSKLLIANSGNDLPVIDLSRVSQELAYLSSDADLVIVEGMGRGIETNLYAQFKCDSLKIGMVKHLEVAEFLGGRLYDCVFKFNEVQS

PH1575 = target: T5, PH1575 (Pyrococcus horikoshii, UniProt O59272); assay: phosphate release, Malachite Green, Michaelis-Menten fit; assay type: biochemical; details: Ni2+ as preferred metal
T5 sequence (O59272 1-287): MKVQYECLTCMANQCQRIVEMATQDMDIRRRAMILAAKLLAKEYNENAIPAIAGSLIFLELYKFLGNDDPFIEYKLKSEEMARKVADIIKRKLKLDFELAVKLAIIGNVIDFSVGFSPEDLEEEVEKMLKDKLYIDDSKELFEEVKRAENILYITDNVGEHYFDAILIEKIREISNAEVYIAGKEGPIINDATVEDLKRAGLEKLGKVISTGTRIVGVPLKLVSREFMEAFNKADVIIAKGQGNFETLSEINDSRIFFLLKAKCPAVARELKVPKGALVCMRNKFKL

YMR027W [5] = target: T6, YMR027W (Saccharomyces cerevisiae, UniProt Q04371); assay: crystal structure, soaking with […] fructose 6-phosphate, […] Å; assay type: binding; details: Mg2+ bound, pH 5.5; active site; protein pretreated with chymotrypsin
T6 sequence (Q04371 1-470): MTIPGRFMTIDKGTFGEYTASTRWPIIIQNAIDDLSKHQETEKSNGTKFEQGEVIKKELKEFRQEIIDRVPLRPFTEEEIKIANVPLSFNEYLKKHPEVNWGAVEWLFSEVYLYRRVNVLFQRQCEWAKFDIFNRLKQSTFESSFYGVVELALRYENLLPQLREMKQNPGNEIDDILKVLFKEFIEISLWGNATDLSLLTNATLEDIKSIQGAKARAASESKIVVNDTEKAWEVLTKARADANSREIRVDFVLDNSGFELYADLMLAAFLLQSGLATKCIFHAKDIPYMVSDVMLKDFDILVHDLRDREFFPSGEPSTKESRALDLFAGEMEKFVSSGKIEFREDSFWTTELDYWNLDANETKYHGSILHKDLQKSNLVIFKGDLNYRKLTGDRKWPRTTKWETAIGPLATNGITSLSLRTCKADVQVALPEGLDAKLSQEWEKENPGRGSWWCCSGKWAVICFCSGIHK

At2g17340 [6] = target: T7, At2g17340 (Arabidopsis thaliana, UniProt Q949P3); assay: phosphate release, Malachite Green, Hill fit; assay type: biochemical; details: 0.2 mM Ni2+, 30 °C; sigmoidal kinetics
T7 sequence (Q949P3 1-367 limits assumed): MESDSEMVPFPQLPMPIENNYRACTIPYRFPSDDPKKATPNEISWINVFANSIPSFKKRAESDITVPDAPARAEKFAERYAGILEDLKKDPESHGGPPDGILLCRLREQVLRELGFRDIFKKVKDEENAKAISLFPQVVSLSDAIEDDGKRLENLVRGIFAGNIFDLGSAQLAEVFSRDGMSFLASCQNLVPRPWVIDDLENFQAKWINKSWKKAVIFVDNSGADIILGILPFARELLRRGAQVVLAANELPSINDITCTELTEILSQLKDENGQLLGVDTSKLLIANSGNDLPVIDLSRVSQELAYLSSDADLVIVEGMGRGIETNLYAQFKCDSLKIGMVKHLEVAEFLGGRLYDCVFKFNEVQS

SEC = target: the molecule itself; assay: SEC

For `O=[N+]([O-])c1ccc(OP(=O)(O)O)cc1` [pNPP, p-nitrophenyl phosphate], the catalytic activity (YMR027W [1]) was “signature residues of YMR027W (Asp254, Asn255, and Asp292)”, the catalytic activity (YMR027W [2]) was “signature residues of YMR027W (Asp254, Asn255, and Asp292)” and the catalytic activity (At2g17340 [3]) was “At2g17340 (Asp220, Asn221, and Asp256) abolished catalytic activity”. For the same molecule, the catalytic activity (At2g17340 [4]) was “At2g17340 (Asp220, Asn221, and Asp256) abolished catalytic activity”.

`Nc1nc2c([nH]c(=O)n2[C@H]2C[C@H](O)[C@@H](COP(=O)(O)OP(=O)(O)OP(=O)(O)O)O2)c(=O)[nH]1` [8-oxo-dGTP] was tested, and the kinetic constants (PH1575) was “the kinetic constants for 8-oxo-dGTP were close to those for ADP”.

In the case of `Nc1ncnc2c1ncn2[C@@H]1O[C@H](COP(=O)(O)OP(=O)(O)O)[C@@H](O)[C@H]1O` [ADP], the kinetic constants (PH1575) is reported as “the kinetic constants for 8-oxo-dGTP were close to those for ADP”.

For `O=P(O)(O)OC[C@H]1OC(O)(CO)[C@@H](O)[C@@H]1O` (some centres unmarked) [F6P, fructose 6-phosphate], the “crystal structure, soaking with 10 mM fructose 6-phosphate, 1.77 Å” value (YMR027W [5]) was “Crystal soaking using YMR027W and the substrate fructose 6-phosphate”.

In the case of `O=P(O)(O)OC[C@H]1OC(O)[C@H](O)[C@@H]1O` (some centres unmarked) [ribose 5-phosphate], the S0.5 (At2g17340 [6]) is reported as “At2g17340 showed sigmoidal kinetics with ribose 5-phosphate or 2-deoxyribose 5-phosphate”.

`O=P(O)(O)OC[C@H]1OC(O)C[C@@H]1O` (some centres unmarked) [2-deoxyribose 5-phosphate] was tested, and the S0.5 (At2g17340 [6]) was “At2g17340 showed sigmoidal kinetics with ribose 5-phosphate or 2-deoxyribose 5-phosphate”.

B1: Pyrococcus horikoshii DUF89 subfamily I protein PH1575 (enzyme, P. horikoshii)
chain: MKVQYECLTCMANQCQRIVEMATQDMDIRRRAMILAAKLLAKEYNENAIPAIAGSLIFLELYKFLGNDDPFIEYKLKSEEMARKVADIIKRKLKLDFELAVKLAIIGNVIDFSVGFSPEDLEEEVEKMLKDKLYIDDSKELFEEVKRAENILYITDNVGEHYFDAILIEKIREISNAEVYIAGKEGPIINDATVEDLKRAGLEKLGKVISTGTRIVGVPLKLVSREFMEAFNKADVIIAKGQGNFETLSEINDSRIFFLLKAKCPAVARELKVPKGALVCMRNKFKL
For B1, the “stoichiometry N” value (SEC) was 2.

B2: Archaeoglobus fulgidus DUF89 subfamily I protein AF1104 (enzyme, A. fulgidus)
chain: MKISPLCPSCLLGRVYYEAKLVTDDEDLISQCVDESLKILAENYSSRPINAHLATRIHRRVYEILGVEDPYAEVKARANEVARQVLPLAKEIVEGSDDPFKTAVIVSIVGNNFDYGVQGHKVVEEEFRDFLKRKVQEGLKINDTERIKELSSGKVVYLTDNAGEIFFDTLLMKEIKRRCEKLTAVVRGRPIISDATIEDARLARVDKIADELLTNGKGAIGIIMDELPDETRKALEEADLIVAKGMANYECLSDGSLKPIAFLLTAKCEPVARDIGVNVGDMVAKVVE
B2 was tested, and the “stoichiometry N” value (SEC) was 2.
